Laboratory results: paper PMC6295333 (Biochemistry, 2018)

Biological target: Nicotine oxidoreductase (NicA2) (Pseudomonas putida, UniProt F8G0P2)
Test: X-ray crystal structure at […] Å
Assay type: binding

Chain of Nicotine oxidoreductase (NicA2) (F8G0P2 whole entry): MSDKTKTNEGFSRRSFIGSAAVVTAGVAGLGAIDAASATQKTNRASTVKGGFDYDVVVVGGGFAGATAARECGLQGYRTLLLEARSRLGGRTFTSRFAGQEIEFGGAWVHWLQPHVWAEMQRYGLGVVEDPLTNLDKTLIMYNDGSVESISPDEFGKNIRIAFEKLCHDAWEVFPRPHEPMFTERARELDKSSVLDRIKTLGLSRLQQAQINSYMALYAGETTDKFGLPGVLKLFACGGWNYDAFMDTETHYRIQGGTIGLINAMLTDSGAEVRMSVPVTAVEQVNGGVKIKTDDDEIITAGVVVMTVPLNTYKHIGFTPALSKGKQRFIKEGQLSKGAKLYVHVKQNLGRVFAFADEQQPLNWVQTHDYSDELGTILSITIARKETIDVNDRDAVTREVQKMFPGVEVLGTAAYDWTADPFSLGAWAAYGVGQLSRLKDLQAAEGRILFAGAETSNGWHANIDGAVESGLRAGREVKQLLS

## Cc1cc2nc3c(=O)[nH]c(=O)nc-3n(C[C@H](O)[C@H](O)[C@H](O)COP(=O)(O)OP(=O)(O)OC[C@H]3O[C@@H](n4cnc5c(N)ncnc54)[C@H](O)[C@@H]3O)c2cc1C [FAD]
  X-ray crystal structure at 2.65 Å: The general positioning of FAD is clearly defined in the electron density maps
